Where no end group is shown, it is not given here.
Assays:
[1] = motor activity of mouse after administration to lateral ventricle; type: in vivo, ICR male mice; conditions: for rearing behavior (increasing tendency) / spontaneous motor activity / rearing behavior: lateral ventricle, mouse
Method: The effects of administration of […] to mouse lateral ventricle on motor activity were studied. The mature ICR male mice (weight at operation: about 35 g) were anesthetized by intraperitoneal administration of 50 mg/kg of pentobarbital, and then fixed on a stereotaxic apparatus. The skull of a said mouse was exposed, then a hole was made by dental drill for guide-cannulization into the left lateral ventricle. The tip of a stainless-steel guide-cannula (24 G, length: 5 mm) for drug injection to lateral ventricle, was inserted to the position of AP: +0.6 mm (from bregma), L: left 1 mm and H: −1 mm (from dura matter). The guide-cannula was fixed onto the skull with adhesive. The cannula-implanted mice were housed as described above and were used for behavioral analysis at least 3 days after the operation.
Motor activity such as spontaneous motor activity and rearing was measured while each mouse was in a transparent acrylic cage (24×37×30 cm) within a soundproofed, illuminated (light up: at 6-18 o'clock) box. Tap water and laboratory chow were available ad libitum. Motor activity was measured by means of a Supermex (Muromachi Kikai). Drugs and PBS were administered at 2:30±30 p.m. At the administration, a stainless-steel micro-injection cannula (30 G, length: 6 mm) was inserted into the guide-cannula. The micro-injection cannula was connected to a microsyringe pump with Teflon tube, and injection of PBS or a peptide dissolved in PBS lasted for 2 minutes at a speed of 2 μl/min. The micro-injection cannula was withdrawn after over a period of 2 minutes from end of injection, then motor activity was meausred.
The results are expressed as a mean±S.E.M. Student's t test was used to determine the significance of differences between values from the mice treated with a peptide and the PBS-injected controls. For the purpose of this analysis, p<0.05 was assumed to be the minimal level of significance.

[2] = biological target: T1, UHR-1 expressed in CHO cells (CHO-UHR1) (Rattus norvegicus, UniProt Q64121, L289V); assay: release of arachidonic acid metabolites from CHO-UHR1 cells; type: cell-based; conditions: CHO cells expressing rat homolog UHR1; duplicate
T1 construct: expressed in transfected cells; host or cells: CHO dhfr- cells transfected with pAKKO-UHR-1
T1 sequence (Q64121 1-370 L289V): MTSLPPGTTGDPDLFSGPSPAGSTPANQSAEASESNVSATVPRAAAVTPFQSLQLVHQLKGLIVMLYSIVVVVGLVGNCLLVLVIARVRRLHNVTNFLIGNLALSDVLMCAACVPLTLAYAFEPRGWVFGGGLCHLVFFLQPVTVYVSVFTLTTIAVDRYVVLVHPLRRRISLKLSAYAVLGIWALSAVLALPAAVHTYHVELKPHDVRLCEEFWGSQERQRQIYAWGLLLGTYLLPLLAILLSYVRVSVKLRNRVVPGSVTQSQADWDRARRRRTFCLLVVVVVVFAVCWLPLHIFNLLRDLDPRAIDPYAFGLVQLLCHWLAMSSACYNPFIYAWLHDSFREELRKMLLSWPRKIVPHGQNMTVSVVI
Method: The full-length receptor protein-expressed CHO cells and mock CHO cells were seeded in a 24-well plate, 0.5×10^5 cells/well, and cultured for 24 hours. Then, [^3H] arachidonic acid was added at a final concentration of 0.25 μCi/well. Sixteen (16) hours after addition of [^3H] arachidonic acid, the cells were rinsed with 0.05% BSA-HBSS and the above-mentioned crude peptide fraction was added, 400 μl/well. The mixture was incubated at 37° C. for 30 minutes and a 300 μl portion of the reaction mixture (400 μl) was added to 4 ml of a scintillator and the amount of [^3H] arachidonic acid metabolite released into the reaction mixture was determined with a scintillation counter.
Same as described in Example 11, the release activity of arachidonic acid metabolite was measured on CHO-19P2-9 and CHO-UHR1 and mock CHO.

[3] = blood pressure after injection into the area postrema of medula oblongata; type: in vivo, male Wistar rats; conditions: 10 nmol into the area postrema of medula oblongata, conscious rats
Method: The inventors explored the influence of injection of 19P2-L31 into the area postrema of medula oblongata on blood pressure. Mature male Wistar rats (body weights at operation: ca 300 g) were anesthetized with pentobarbital 50 mg/kg i.p. and each animal was immobilized in a rat brain stereotaxic apparatus. The incisor bar was lowered by 3.3 mm from the interaural line. The skull was exposed, and using a dental drill a hole was made on the skull for implantation of a guide cannula. In addition, anchor screws were buried in two positions around the drilled hole. A stainless-steel guide cannula, AG-12 (0.4 mm inside dia., 0.5 mm out. dia., EICOM), was inserted in such a manner that its leading end would be situated in the upper part of the area postrema. […] With reference to the atlas of Paxinos and Watson (1986), the stereotaxic coordinates were AP: −6.0 mm (from interaural line), L: 0.0 mm, and H: +1.5 mm (from interaural line). […]
After waiting overnight postoperatively, the polyethylene tube was connected to a transducer (Spectramed) and the blood pressure was measured. After blood pressure readings became steady, the cap nut and dummy cannula were removed from the rat skull and, instead, a stainless steel microinjection cannula (0.17 mm in. dia., 0.35 mm out. dia., EICOM) connected to a Teflon tube (50 cm long, 0.1 mm in. dia., 0.4 mm out. dia., EICOM) was inserted. […]

release activity of arachidonic acid metabolite [2]: detected same as CHO-19P2-9
Substance: Ser-Arg-Ala-His-Gln-His-Ser-Met-Glu-Ile-Arg-Thr-Pro-Asp-Ile-Asn-Pro-Ala-Trp-Tyr-Ala-Gly-Arg-Gly-Ile-Arg-Pro-Val-Gly-Arg-Phe-NH2 (SRAHQHSMEIRTPDINPAWYAGRGIRPVGRF-NH2) [19P2-L31, synthetic ligand polypeptide]
rearing behavior (increasing tendency) ([1]; 0.01 nmol): not statistically significant | spontaneous motor activity ([1]; 0.01 nmol, at 20 min and 40 min after injection): significant increase | rearing behavior (increasing tendency) ([1]; 0.1 nmol): not statistically significant | spontaneous motor activity ([1]; 0.1 nmol, at 25 min, 40 min and 70 min after injection): significant increase | spontaneous motor activity ([1]; 1 nmol): did not cause statistically significant change | rearing behavior ([1]; 1 nmol, at only 105 min after injection): significant decrease | rearing behavior ([1]; 10 nmol): significant variation | spontaneous motor activity ([1]; 10 nmol): significant increase | amount of activity (motor activity) ([1]; 0.01-10 nmol, lateral ventricle of mice, summary): an increase in the amount of activity was found | blood pressure [3]: caused an elevation of blood pressure

Source: patent US6794491B1, “Polypeptides, their production and use” (Takeda Chemical Industries, Ltd., priority 1995, dated 2004)
